Assay results from US10208089B2, “Modulation of complement activity” (priority 2014, dated 2019).
Starred links: 1 amine or outer side, 2 acyl side, 3 side chain; linkers in the order of their positions; H or OH if unused. Positions of bridges follow the written chain, without caps; N, C: chain ends. Non-standard residues stand in square brackets, D forms with d. Residues, ends and D or L forms follow the SMILES beside them. Ala(1H-tetrazol-5-yl) = N[C@@H](Cc1nnn[nH]1)C(=O)O; Trp(7-aza) = N[C@@H](Cc1c[nH]c2ncccc12)C(=O)O; Phe(3-Cl) = N[C@@H](Cc1cccc(Cl)c1)C(=O)O; mXylylene = c1cc(C[*:1])cc(C[*:2])c1; Phg = N[C@H](C(=O)O)c1ccccc1; Tle = CC(C)(C)[C@H](N)C(=O)O; NMeS = CN[C@@H](CO)C(=O)O; Nva = CCC[C@H](N)C(=O)O

The compounds below were run against C5 (Homo sapiens, UniProt P01031) (assay: Human hemolysis assay (RBC lysis assay using complete human sera)). Settings: 7-azatryptophan variant polypeptides of R3002; inhibition of red blood cell lysis.
Sequence of C5 (P01031 19-1676): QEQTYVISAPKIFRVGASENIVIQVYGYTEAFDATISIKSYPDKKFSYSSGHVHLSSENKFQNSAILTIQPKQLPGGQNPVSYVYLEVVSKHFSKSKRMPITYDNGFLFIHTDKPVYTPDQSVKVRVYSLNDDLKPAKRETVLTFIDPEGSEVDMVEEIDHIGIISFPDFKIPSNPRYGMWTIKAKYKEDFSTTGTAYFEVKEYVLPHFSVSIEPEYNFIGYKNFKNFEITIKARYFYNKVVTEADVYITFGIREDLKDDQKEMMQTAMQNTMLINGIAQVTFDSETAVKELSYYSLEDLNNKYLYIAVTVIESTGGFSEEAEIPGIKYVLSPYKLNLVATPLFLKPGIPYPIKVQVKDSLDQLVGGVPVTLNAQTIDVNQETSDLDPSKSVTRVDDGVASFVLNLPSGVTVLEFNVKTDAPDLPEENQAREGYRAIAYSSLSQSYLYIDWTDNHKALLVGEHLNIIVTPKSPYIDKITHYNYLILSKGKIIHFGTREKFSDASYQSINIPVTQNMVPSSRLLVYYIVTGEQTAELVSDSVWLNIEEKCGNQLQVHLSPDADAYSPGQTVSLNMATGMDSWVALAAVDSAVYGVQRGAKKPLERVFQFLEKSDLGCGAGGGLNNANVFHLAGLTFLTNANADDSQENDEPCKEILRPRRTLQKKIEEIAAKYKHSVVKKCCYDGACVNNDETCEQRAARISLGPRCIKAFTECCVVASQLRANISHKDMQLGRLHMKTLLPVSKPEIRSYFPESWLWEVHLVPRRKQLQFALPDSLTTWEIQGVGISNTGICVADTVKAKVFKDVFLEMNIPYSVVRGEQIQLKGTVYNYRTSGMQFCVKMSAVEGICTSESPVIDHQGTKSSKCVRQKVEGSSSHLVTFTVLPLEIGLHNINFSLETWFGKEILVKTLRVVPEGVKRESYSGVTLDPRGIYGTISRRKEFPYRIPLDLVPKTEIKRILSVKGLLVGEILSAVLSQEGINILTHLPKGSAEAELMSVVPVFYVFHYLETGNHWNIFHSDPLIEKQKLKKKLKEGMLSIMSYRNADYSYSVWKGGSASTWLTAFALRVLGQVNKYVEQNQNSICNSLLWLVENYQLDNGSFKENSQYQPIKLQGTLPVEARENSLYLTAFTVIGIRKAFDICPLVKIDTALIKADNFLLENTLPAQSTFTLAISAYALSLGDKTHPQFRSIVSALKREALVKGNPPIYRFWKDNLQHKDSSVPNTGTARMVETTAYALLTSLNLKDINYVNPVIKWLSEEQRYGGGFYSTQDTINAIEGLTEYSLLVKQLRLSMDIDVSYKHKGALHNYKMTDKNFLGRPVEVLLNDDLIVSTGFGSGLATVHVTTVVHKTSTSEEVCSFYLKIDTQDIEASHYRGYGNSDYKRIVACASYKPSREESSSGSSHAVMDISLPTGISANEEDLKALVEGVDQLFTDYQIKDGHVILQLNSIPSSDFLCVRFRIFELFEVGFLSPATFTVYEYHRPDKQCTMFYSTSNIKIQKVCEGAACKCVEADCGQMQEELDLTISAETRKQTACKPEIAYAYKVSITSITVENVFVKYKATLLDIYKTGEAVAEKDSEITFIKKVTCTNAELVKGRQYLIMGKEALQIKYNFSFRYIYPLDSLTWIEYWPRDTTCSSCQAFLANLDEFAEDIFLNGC
Assay type: cell-based
Parameters: with complete human sera (Complement Technology, Tyler Tex.) and polypeptides; tissue Complement Technology, Tyler Tex; host or cells: complete human serum

Q: With `CCC[C@H](NC(C)=O)C(=O)N[C@H]1CSCc2cccc(c2)CSC[C@@H](C(=O)N[C@@H](CCC(=O)O)C(=O)N[C@@H](Cc2ccc(O)cc2)C(=O)N2CCC[C@H]2C(=O)N[C@H](C(=O)N[C@H](C(N)=O)C(C)(C)C)c2ccccc2)NC(=O)[C@H](CCC(=O)O)NC(=O)[C@H](C(C)(C)C)NC(=O)[C@H](CC(N)=O)NC(=O)[C@H](CC(N)=O)NC(=O)[C@H](Cc2ccc(O)cc2)NC1=O` [Compound R3129, [mXylyl(2,8)]Ac-Nvl-C-Y-N-N-Tbg-E-C-E-Y-P-Phg-Tbg-NH2] (Ac-[Nva]CYNN[Tle]ECEYP[Phg][Tle]-NH2; linker 2-8 via mXylylene) as the compound, how does the IC50 read?
A: > 100 µM

Same assay, conditions: 7-azatryptophan variant polypeptides of R3008; inhibition of red blood cell lysis

Q: For `CCC[C@H](NC(=O)[C@@H]1CSCc2cccc(c2)CSC[C@H](NC(=O)[C@H](CCC)NC(C)=O)C(=O)N[C@@H](c2ccccc2)C(=O)N[C@@H]([C@@H](C)O)C(=O)N[C@@H](Cc2c[nH]c3ccccc23)C(=O)N[C@@H](Cc2nnn[nH]2)C(=O)N[C@@H](Cc2ccc(O)cc2)C(=O)N(C)[C@@H](CO)C(=O)N[C@@H](Cc2c[nH]cn2)C(=O)N1)C(N)=O` [Compound R3131, [mXylyl(2,10)]Ac-Nvl-C-Phg-T-W-Asp(T)-Y-(N-Me)S-H-C-Nvl-NH2] (Ac-[Nva]C[Phg]TW[Ala(1H-tetrazol-5-yl)]Y[NMeS]HC[Nva]-NH2; linker 2-10 via mXylylene), which IC50 is on record?
A: > 100 µM

Q: Which IC50 does the source give for `CCC[C@H](NC(=O)[C@@H]1CSCc2cccc(c2)CSC[C@H](NC(=O)[C@H](CCC)NC(C)=O)C(=O)N[C@@H](c2ccccc2)C(=O)N[C@@H]([C@@H](C)O)C(=O)N[C@H](Cc2c[nH]c3ccccc23)C(=O)N[C@@H](CCC(=O)O)C(=O)N[C@@H](Cc2ccc(O)cc2)C(=O)N(C)[C@@H](CO)C(=O)N[C@@H](Cc2c[nH]cn2)C(=O)N1)C(N)=O` [Compound R3132, [mXylyl(2,10)]Ac-Nvl-C-Phg-T-(D-Trp)-E-Y-(N-Me)S-H-C-Nvl-NH2] (Ac-[Nva]C[Phg]T[dW]EY[NMeS]HC[Nva]-NH2; linker 2-10 via mXylylene) here?
A: > 100 µM

Same assay, conditions: inhibition of lysis of antibody-sensitized sheep erythrocytes, complete human sera

Q: Which IC50 does the source give for `CCC[C@H](NC(C)=O)C(=O)N[C@H]1CSCc2cccc(c2)CSC[C@@H](C(=O)N[C@@H](CCC(=O)O)C(=O)N[C@@H](Cc2ccc(O)cc2)C(=O)N2CCC[C@H]2C(=O)N[C@H](C(=O)N[C@H](C(N)=O)C(C)(C)C)c2ccccc2)NC(=O)[C@H](CCC(=O)O)NC(=O)[C@H](C(C)(C)C)NC(=O)[C@H](CC(N)=O)NC(=O)[C@H](CC(N)=O)NC(=O)[C@H](Cc2ccc(O)cc2)NC1=O` [Compound R3129, [mXylyl(2,8)]Ac-Nvl-C-Y-N-N-Tbg-E-C-E-Y-P-Phg-Tbg-NH2] (Ac-[Nva]CYNN[Tle]ECEYP[Phg][Tle]-NH2; linker 2-8 via mXylylene) here?
A: > 100 µM

Q: With `CCC[C@H](NC(=O)[C@@H]1CSCc2cccc(c2)CSC[C@H](NC(=O)[C@H](CCC)NC(C)=O)C(=O)N[C@@H](c2ccccc2)C(=O)N[C@@H]([C@@H](C)O)C(=O)N[C@@H](Cc2c[nH]c3ccccc23)C(=O)N[C@@H](Cc2nnn[nH]2)C(=O)N[C@@H](Cc2ccc(O)cc2)C(=O)N(C)[C@@H](CO)C(=O)N[C@@H](Cc2c[nH]cn2)C(=O)N1)C(N)=O` [Compound R3131, [mXylyl(2,10)]Ac-Nvl-C-Phg-T-W-Asp(T)-Y-(N-Me)S-H-C-Nvl-NH2] (Ac-[Nva]C[Phg]TW[Ala(1H-tetrazol-5-yl)]Y[NMeS]HC[Nva]-NH2; linker 2-10 via mXylylene) as the compound, how does the IC50 read?
A: > 100 µM

Q: How did the IC50 turn out when `CCC[C@H](NC(=O)[C@@H]1CSCc2cccc(c2)CSC[C@H](NC(=O)[C@H](CCC)NC(C)=O)C(=O)N[C@@H](c2ccccc2)C(=O)N[C@@H]([C@@H](C)O)C(=O)N[C@H](Cc2c[nH]c3ccccc23)C(=O)N[C@@H](CCC(=O)O)C(=O)N[C@@H](Cc2ccc(O)cc2)C(=O)N(C)[C@@H](CO)C(=O)N[C@@H](Cc2c[nH]cn2)C(=O)N1)C(N)=O` [Compound R3132, [mXylyl(2,10)]Ac-Nvl-C-Phg-T-(D-Trp)-E-Y-(N-Me)S-H-C-Nvl-NH2] (Ac-[Nva]C[Phg]T[dW]EY[NMeS]HC[Nva]-NH2; linker 2-10 via mXylylene) was run?
A: > 100 µM

Q: For `CCC[C@H](NC(=O)[C@@H]1CSCc2cccc(c2)CSC[C@H](NC(=O)[C@H](CCC)NC(C)=O)C(=O)N[C@@H](c2ccccc2)C(=O)N[C@H](C)C(=O)N[C@@H](Cc2c[nH]c3ncccc23)C(=O)N[C@@H](CCC(=O)O)C(=O)N[C@@H](Cc2ccc(O)cc2)C(=O)N(C)[C@@H](CO)C(=O)N[C@@H](Cc2c[nH]cn2)C(=O)N1)C(N)=O` [Compound R3133, [mXylyl(2,10)]Ac-Nvl-C-Phg-(D-Ala)-azaTrp-E-Y-(N-Me)S-H-C-Nvl-NH2] (Ac-[Nva]C[Phg][dA][Trp(7-aza)]EY[NMeS]HC[Nva]-NH2; linker 2-10 via mXylylene), which IC50 is on record?
A: > 75 µM

Q: With `CCC[C@H](NC(=O)[C@@H]1CSCc2cccc(c2)CSC[C@H](NC(=O)[C@H](CCC)NC(C)=O)C(=O)N[C@@H](c2ccccc2)C(=O)N[C@@H]([C@@H](C)O)C(=O)N[C@@H](Cc2c[nH]c3ncccc23)C(=O)N[C@@H](CCC(=O)O)C(=O)N[C@@H](Cc2cccc(Cl)c2)C(=O)N(C)[C@@H](CO)C(=O)N[C@@H](C)C(=O)N1)C(N)=O` [Compound R3134, [mXylyl(2,10)]Ac-Nvl-C-Phg-T-azaTrp-E-(3-Cl-Phe)-(N-Me)S-A-C-Nvl-NH2] (Ac-[Nva]C[Phg]T[Trp(7-aza)]E[Phe(3-Cl)][NMeS]AC[Nva]-NH2; linker 2-10 via mXylylene) as the compound, how does the IC50 read?
A: > 5 µM

Q: Which IC50 does the source give for `CCC[C@H](NC(=O)[C@@H]1CSCc2cccc(c2)CSC[C@H](NC(=O)[C@H](CCC)NC(C)=O)C(=O)N[C@@H](c2ccccc2)C(=O)N[C@@H]([C@@H](C)O)C(=O)N[C@@H](Cc2c[nH]c3ncccc23)C(=O)N[C@@H](CCC(=O)O)C(=O)N[C@@H](Cc2ccc(O)cc2)C(=O)N(C)[C@@H](CO)C(=O)N[C@H](C)C(=O)N1)C(N)=O` [Compound R3135, [mXylyl(2,10)]Ac-Nvl-C-Phg-T-azaTrp-E-Y-(N-Me)S-(D-Ala)-C-Nvl-NH2] (Ac-[Nva]C[Phg]T[Trp(7-aza)]EY[NMeS][dA]C[Nva]-NH2; linker 2-10 via mXylylene) here?
A: > 25 µM

Q: `CC(=O)N[C@H]1CSCc2cccc(c2)CSC[C@@H](C(=O)N[C@@H](CC(=O)O)C(=O)N[C@H](C(=O)N[C@@H](Cc2ccc(O)cc2)C(=O)N[C@@H](Cc2c[nH]c3ccccc23)C(=O)N[C@@H](CCC(=O)O)C(=O)N[C@@H](Cc2ccccc2)C(N)=O)C(C)(C)C)NC(=O)[C@H](Cc2ccccc2)NC(=O)[C@H](CCCNC(=N)N)NC(=O)[C@H](CCC(=O)O)NC(=O)[C@H](C(C)C)NC1=O` [Compound R3138, [mXylyl(1,6)]Ac-C-V-E-R-F-C-D-Tbg-Y-W-E-F-NH2] (Ac-CVERFCD[Tle]YWEF-NH2; linker 1-6 via mXylylene) was tested. Which IC50 did it give?
A: 0.0872 µM
